Test system: 362531-283-R-J2-PDC complex spheroid viability
Assay: Anticancer human tumor 362531-283-R-J2-PDC patient-derived colon adenocarcinoma cell line growth inhibition [RAS]
Settings: for IC50: curve of first compound; for viability, T/C: stronger effect = lower value
Procedure, shortened: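 Agents were tested in combination matrices in half-log decrements from a top concentration at or near clinical Cmax (10 microM if undetermined). Targets were multi-cell spheroids of tumour lines plus HUVEC and MSC stromal cells.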

[1] = second compound 0.00316 µM, first compound 0.0316 µM
[2] = second compound 0.00316 µM, first compound 0.1 µM
[3] = second compound 0.00316 µM, first compound 0.316 µM
[4] = second compound 0.00316 µM, first compound 1 µM
[5] = second compound 0.01 µM, first compound 0.0316 µM
[6] = second compound 0.01 µM, first compound 0.1 µM
[7] = second compound 0.01 µM, first compound 0.316 µM
[8] = second compound 0.01 µM, first compound 1 µM
[9] = second compound 0.0316 µM, first compound 0.0316 µM
[10] = second compound 0.0316 µM, first compound 0.1 µM
[11] = second compound 0.0316 µM, first compound 0.316 µM
[12] = second compound 0.0316 µM, first compound 1 µM
[13] = second compound 0.1 µM, first compound 0.0316 µM
[14] = second compound 0.1 µM, first compound 0.1 µM
[15] = second compound 0.1 µM, first compound 0.316 µM
[16] = second compound 0.1 µM, first compound 1 µM
[17] = second compound 0.316 µM, first compound 0.0316 µM
[18] = second compound 0.316 µM, first compound 0.1 µM
[19] = second compound 0.316 µM, first compound 0.316 µM
[20] = second compound 0.316 µM, first compound 1 µM
[21] = second compound 1 µM, first compound 0.0316 µM
[22] = second compound 1 µM, first compound 0.1 µM
[23] = second compound 1 µM, first compound 0.316 µM
[24] = second compound 1 µM, first compound 1 µM
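Further: spheroids exposed to the agents for 7 days before readout.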
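Wherever viability, T/C is given: luminescence viability as percent of DMSO vehicle control wells.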

SMILES: CC(Nc1ccc2c(c1)OCCn1cc(N3C(=O)OCC3C(F)F)nc1-2)C(N)=O (centres undefined) + C=CC(=O)N1CCN(c2nc(OCC3CCCN3C)nc3c(F)c(-c4nc(N)cc(C)c4C(F)(F)F)c(Cl)cc23)C(C)C1
- IC50 (second compound 0.00316 µM): 549 nM
- IC50 (second compound 0.01 µM): 928 nM
- IC50 (second compound 0.0316 µM): 666 nM
- IC50 (second compound 0.1 µM): 810 nM
- IC50 (second compound 0.316 µM): 839 nM
- IC50 (second compound 1 µM): 808 nM
- viability, T/C [1]: 96.6%
- viability, T/C [2]: 78.6%
- viability, T/C [3]: 54.5%
- viability, T/C [4]: 46.1%
- viability, T/C (second compound 0.00316 µM, first compound 3.16 µM): 39.1%
- viability, T/C (second compound 0.00316 µM, first compound 10 µM): 42.7%
- viability, T/C [5]: 97.4%
- viability, T/C [6]: 86.2%
- viability, T/C [7]: 70.2%
- viability, T/C [8]: 46.8%
- viability, T/C (second compound 0.01 µM, first compound 3.16 µM): 38.3%
- viability, T/C (second compound 0.01 µM, first compound 10 µM): 30.3%
- viability, T/C [9]: 87.4%
- viability, T/C [10]: 84.4%
- viability, T/C [11]: 63.7%
- viability, T/C [12]: 43.5%
- viability, T/C (second compound 0.0316 µM, first compound 3.16 µM): 33.3%
- viability, T/C (second compound 0.0316 µM, first compound 10 µM): 43.4%
- viability, T/C [13]: 95.9%
- viability, T/C [14]: 92.5%
- viability, T/C [15]: 71.7%
- viability, T/C [16]: 44.2%
- viability, T/C (second compound 0.1 µM, first compound 3.16 µM): 35.4%
- viability, T/C (second compound 0.1 µM, first compound 10 µM): 27.4%
- viability, T/C [17]: 107%
- viability, T/C [18]: 88%
- viability, T/C [19]: 68.8%
- viability, T/C [20]: 47.9%
- viability, T/C (second compound 0.316 µM, first compound 3.16 µM): 31.9%
- viability, T/C (second compound 0.316 µM, first compound 10 µM): 35.8%
- viability, T/C [21]: 94.8%
- viability, T/C [22]: 95.6%
- viability, T/C [23]: 72%
- viability, T/C [24]: 46.6%
- viability, T/C (second compound 1 µM, first compound 3.16 µM): 31.8%
- viability, T/C (second compound 1 µM, first compound 10 µM): 35%

SMILES: O=C(c1ccc(F)c(F)c1Nc1ccc(I)cc1F)N1CC(O)([C@@H]2CCCCN2)C1 + C=CC(=O)N1CCN(c2nc(OCC3CCCN3C)nc3c(F)c(-c4nc(N)cc(C)c4C(F)(F)F)c(Cl)cc23)C(C)C1
- IC50 (second compound 0.00316 µM): 363 nM
- IC50 (second compound 0.01 µM): 399 nM
- IC50 (second compound 0.0316 µM): 306 nM
- IC50 (second compound 0.1 µM): 368 nM
- IC50 (second compound 0.316 µM): 377 nM
- IC50 (second compound 1 µM): 349 nM
- viability, T/C (second compound 0.00316 µM, first compound 0.00316 µM): 94.4%
- viability, T/C (second compound 0.00316 µM, first compound 0.01 µM): 111%
- viability, T/C [1]: 93.1%
- viability, T/C [2]: 84.8%
- viability, T/C [3]: 56.6%
- viability, T/C [4]: 4.22%
- viability, T/C (second compound 0.01 µM, first compound 0.00316 µM): 100%
- viability, T/C (second compound 0.01 µM, first compound 0.01 µM): 95.3%
- viability, T/C [5]: 97%
- viability, T/C [6]: 83.9%
- viability, T/C [7]: 61.4%
- viability, T/C [8]: 6.87%
- viability, T/C (second compound 0.0316 µM, first compound 0.00316 µM): 103%
- viability, T/C (second compound 0.0316 µM, first compound 0.01 µM): 99.2%
- viability, T/C [9]: 95.1%
- viability, T/C [10]: 80.8%
- viability, T/C [11]: 48.9%
- viability, T/C [12]: 10.1%
- viability, T/C (second compound 0.1 µM, first compound 0.00316 µM): 101%
- viability, T/C (second compound 0.1 µM, first compound 0.01 µM): 97.5%
- viability, T/C [13]: 88.8%
- viability, T/C [14]: 79.6%
- viability, T/C [15]: 59.6%
- viability, T/C [16]: 4.51%
- viability, T/C (second compound 0.316 µM, first compound 0.00316 µM): 99.7%
- viability, T/C (second compound 0.316 µM, first compound 0.01 µM): 97.6%
- viability, T/C [17]: 91.9%
- viability, T/C [18]: 81.9%
- viability, T/C [19]: 58.3%
- viability, T/C [20]: 6.58%
- viability, T/C (second compound 1 µM, first compound 0.00316 µM): 101%
- viability, T/C (second compound 1 µM, first compound 0.01 µM): 94.7%
- viability, T/C [21]: 81.1%
- viability, T/C [22]: 79.7%
- viability, T/C [23]: 55.5%
- viability, T/C [24]: 8.33%

Source: PubChem BioAssay AID2060909 (Molecular Pharmacology Branch, DTP, NCI, 2025)
